The target in this assay is human AMPK (full-length γ1, β1 and α1 subunits) (Homo sapiens (Human), UniProt Q13131+Q9Y478). The experiment in a line: AMPK in vitro biochemical assay (33P-based, SAMS peptide, PP2A dephosphorylation). Conditions: for pEC50: activation of phosphorylated AMPK, 33P-ATP, SAMS peptide, PP2A treatment, 4-parameter fit; for Emax: counts as % of positive control wells (enzyme, allosteric activator or AMP, PP2A and substrate), read-out: Maximum. The text has this: We designed a tricistronic AMPK expression construct that included open reading frames encoding the full-length γ1, β1 and α1 subunits of human AMPK with a ribosome-binding site (RBS) ahead of each coding region and subcloned this into pET-14b expression vector (Novagen, Madison, Wis.) using standard molecular biology techniques. AMPK tricistronic construct was transformed into E. coli BL21-CodonPlus™ (DE3)-RIPL strain (Stratagene) and transformants were selected on LB (Luria-Bertani) agar plates containing ampicillin (100 μg/ml). […] Optical density sample measurements were made on an UltroSpec 2000 spectrophotometer (Pharmacia Biotech) at 600 nm. When the cell density reached ˜0.9 OD, the temperature was reduced to 18° C. and the culture was induced at 18° C. with 0.1 mM Isopropylthiogalactoside (IPTG). […] The cell pellets were aliquoted into four portions, flash frozen in liquid nitrogen and were stored at −80° C. until purification. For purification, frozen cell paste was thawed and resuspended in 50 ml lysis buffer (50 mM Tris, pH 8.0, 150 mM NaCl, 10% glycerol, 2 mM Tris-2-carboxyethyl phosphine (TCEP), 20 mM imidazole and 0.001% Triton X-100). After sonication, insoluble material was removed by centrifugation at 15,000 rpm in a Sorvall® RC5 plus centrifuge for 30 min at 4° C. and the supernatant was loaded onto a 5 ml HisTrap™ HP column (GE Healthcare, Piscataway, N.J.) and washed with five column volumes of lysis buffer. Bound proteins were eluted using an elution buffer containing 300 mM imidazole. Fractions containing AMPK subunits were pooled based on SDS-10% PAGE analysis and dialyzed overnight in dialysis buffer (50 mM Tris, pH 8.0, 150 mM NaCl, 10% glycerol, 2 mM TCEP, and 0.001% Triton X-100). […] The phosphorylated AMPK complex was re-purified on HisTrap™ HP column as before, dialyzed over night in dialysis buffer. The phosphorylated AMPK complex was further purified by gel filtration chromatography with a Superdex 200 HiLoad 16/60 column (GE Healthcare) in SEC buffer (50 mM Tris, pH 8.0, 150 mM NaCl, 10% glycerol, 2 mM TCEP, and 0.001% Triton X-100).
Chain of human AMPK (full-length γ1, β1 and α1 subunits) (Q13131 whole entry): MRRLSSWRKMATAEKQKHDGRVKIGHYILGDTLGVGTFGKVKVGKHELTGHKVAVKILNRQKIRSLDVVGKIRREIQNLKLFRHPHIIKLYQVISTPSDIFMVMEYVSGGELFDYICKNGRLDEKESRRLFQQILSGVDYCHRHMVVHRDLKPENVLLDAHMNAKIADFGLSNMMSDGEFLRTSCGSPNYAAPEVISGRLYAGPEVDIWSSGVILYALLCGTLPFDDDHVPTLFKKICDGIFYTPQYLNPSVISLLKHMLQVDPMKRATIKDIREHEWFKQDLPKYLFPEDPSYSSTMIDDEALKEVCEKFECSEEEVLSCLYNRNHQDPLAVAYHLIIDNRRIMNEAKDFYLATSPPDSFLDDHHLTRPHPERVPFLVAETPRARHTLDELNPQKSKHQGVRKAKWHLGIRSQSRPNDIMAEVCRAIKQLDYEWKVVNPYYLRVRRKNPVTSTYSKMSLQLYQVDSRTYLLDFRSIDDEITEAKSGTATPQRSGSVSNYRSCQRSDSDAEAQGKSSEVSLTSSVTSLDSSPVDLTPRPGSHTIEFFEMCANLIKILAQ
Chain of human AMPK (full-length γ1, β1 and α1 subunits) (Q9Y478 whole entry): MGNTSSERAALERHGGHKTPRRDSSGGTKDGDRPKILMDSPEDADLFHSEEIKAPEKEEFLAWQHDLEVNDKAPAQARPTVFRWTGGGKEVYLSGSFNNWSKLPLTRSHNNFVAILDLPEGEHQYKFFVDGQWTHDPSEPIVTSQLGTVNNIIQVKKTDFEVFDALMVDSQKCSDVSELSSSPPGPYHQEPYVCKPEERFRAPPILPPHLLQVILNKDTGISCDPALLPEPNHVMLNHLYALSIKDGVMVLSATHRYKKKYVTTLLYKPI
Chain of human AMPK (full-length γ1, β1 and α1 subunits) (P54619 whole entry partner): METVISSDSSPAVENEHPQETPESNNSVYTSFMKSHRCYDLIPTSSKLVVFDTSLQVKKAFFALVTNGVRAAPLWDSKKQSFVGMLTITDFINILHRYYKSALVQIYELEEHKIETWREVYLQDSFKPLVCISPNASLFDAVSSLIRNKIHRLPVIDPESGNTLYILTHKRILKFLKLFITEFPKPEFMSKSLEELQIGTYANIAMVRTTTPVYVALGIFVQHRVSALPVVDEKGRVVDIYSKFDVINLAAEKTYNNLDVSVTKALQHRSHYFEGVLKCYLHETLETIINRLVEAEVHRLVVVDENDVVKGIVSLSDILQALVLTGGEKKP
The harvest time (72 hours post infection) was indicated by percent cell viability (to 85-90%) and increased cell diameter (3-4 μm). […] For purification, the cell paste was resuspended in 500 mL lysis buffer (50 mM Tris pH 8.0, 150 mM NaCl, 25 mM imidazole, 10% glycerol, 2 mM MgCl2, 2 mM TCEP+protease inhibitor cocktail. After lysis, cellular debris was removed by centrifugation at 36K×g for 1 hour. The resulting supernatant was filtered at 0.2 micron before applying to a 1 mL nickel charged IMAC column (HisTrap, GE). The bound resin was washed to baseline with 50 CV of 50 mM Tris pH 8.0, 150 mM NaCl, 25 mM imidazole, 10% glycerol, 2 mM MgCl2, 2 mM TCEP before eluting over a 20 CV gradient to 100% with wash buffer containing 500 mM imidazole. Pooled fractions containing PP2A were combined and diluted 10× with 50 mM Tris pH 8.0, 10% glycerol, 1 mM TCEP and applied to a 1 mL AIEX resin (HiTrap QFF, GE). The bound resin was washed with dilution buffer and PP2A was eluted over a 20 CV gradient to 100% 50 mM Tris pH 8.0, 500 mM NaCl, 10% glycerol, 1 mM TCEP and was further diluted 1:1 with 50 mM Tris pH 8.0, 150 mM NaCl, 10% glycerol, and 1 mM TCEP buffer.
The biochemical EC50 (half-maximal concentration required for full activation) of compounds for the activation of AMPK was evaluated by ^33P-based assay using SAMS peptide (commercially available) derived from ACC-1. Twenty μl of phosphorylated AMPK diluted in assay buffer, (50 mM HEPES, 1 mM EGTA, 10 mM MgCl2, 0.25 mM DTT, 0.01% Tween-20, 0.01% BSA (pH 7.5)) was added to 384 well plates containing 1 μL of test compound. Following a fifteen minute room temperature incubation, 10 μL of protein phosphatase PP2A was added to the plate to dephosphorylate pThr172 of AMPK. […] The reaction was terminated after 60 minutes incubation at room temperature by the addition of 15 μL of 2% H3PO4.

pEC50: −log10 of the molar value.

As a reminder, the pEC50 is the EC50 on a negative log10 scale, so that one unit is a factor of ten. Read a low pEC50 as a high EC50. On to `CN1CCC(c2ccc(-c3cc4c(C(=O)O)c[nH]c4cc3Cl)cc2)C1` (stereo not drawn) [Example 74, 6-chloro-5-[4-(1-methylpyrrolidin-3-yl)phenyl]-1H-indole-3-carboxylic acid], for which the pEC50 is 7.35 and the Emax stood at 110%. `O=C(O)c1c[nH]c2cc(F)c(-c3ccc(C4CCCO4)cc3)c(F)c12` (single isomer, unassigned) [Example 153, 4,6-difluoro-5-[4-(tetrahydrofuran-2-yl)phenyl]-1H-indole-3-carboxylic acid]: the pEC50 was 6.86.

As to `Cc1cc(-c2cc3c(C(=O)O)c[nH]c3cc2Cl)ccc1C1(O)CCC1` [Example 41, 6-chloro-5-[4-(1-hydroxycyclobutyl)-3-methylphenyl]-1H-indole-3-carboxylic acid], the pEC50 was 8.02 and the Emax came to 62%. For `COc1cc(-c2cc3c(C(=O)NS(C)(=O)=O)c[nH]c3cc2Cl)ccc1C(C)(C)CO` [Example 177, 6-chloro-5-[4-(1-hydroxy-2-methylpropan-2-yl)-3-methoxyphenyl]-N-(methylsulfonyl)-1H-indole-3-carboxamide], in that order: 7.21 and 111%.

Turning to `O=C(O)c1c[nH]c2cc(Cl)c(-c3ccc4c(c3)OC[C@H](CO)O4)cc12` [Example 144, 6-chloro-5-[(2S)-2-(hydroxymethyl)-2,3-dihydro-1,4-benzodioxin-6-yl]-1H-indole-3-carboxylic acid], the pEC50 was 6.63 and the Emax came to 119%. As to `COc1ccc(-c2cc3c(C(=O)O)c[nH]c3cc2Cl)cc1OC` [Example 37, 6-chloro-5-(3,4-dimethoxyphenyl)-1H-indole-3-carboxylic acid], the pEC50 is 6.61 and the Emax turned out to be 81%. Turning to `O=C(O)c1c[nH]c2cc(Cl)c(-c3ccc(O[C@@H]4CCC[C@H]4O)cc3)cc12` (racemic) [Example 38, (±)-6-chloro-5-(4-{[trans-2-hydroxycyclopentyl]oxy}phenyl)-1H-indole-3-carboxylic acid], the pEC50 is 6.97 and the Emax was found to be 93%. On the same counts, the results for `O=C(O)c1n[nH]c2cc(Cl)c(-c3ccc4c(c3)CCO4)cc12` [Example 113, 6-Chloro-5-(2,3-dihydrobenzofuran-5-yl)-1H-indazole-3-carboxylic acid] are 6.46 and 100%. For `O=C(O)c1n[nH]c2cc(Cl)c(-c3ccc(C4CCCCC4)cc3)cc12` [Example 110, 6-Chloro-5-(4-cyclohexylphenyl)-1H-indazole-3-carboxylic acid], in that order: 6.69 and 90%. On the same counts, the results for `COC[C@H](C)Oc1ccc(-c2cc3c(C(=O)O)c[nH]c3cc2Cl)cc1` [Example 159, 6-chloro-5-(4-{[(2S)-1-methoxypropan-2-yl]oxy}phenyl)-1H-indole-3-carboxylic acid] are 7.32 and 98.6%. For `O=C(O)c1n[nH]c2cc(Cl)c(-c3ccc4c(c3)CCC4)cc12` [Example 116, 6-Chloro-5-(2,3-dihydro-1H-inden-5-yl)-1H-indazole-3-carboxylic acid], the negative-log EC50 (pEC50) is 7.32 and the Emax turned out to be 104%.

`O=C(O)c1c[nH]c2cc(F)c(-c3ccc(C4CCOCC4)cc3)c(F)c12` [Example 166, 4,6-difluoro-5-[4-(tetrahydro-2H-pyran-4-yl)phenyl]-1H-indole-3-carboxylic acid]: the pEC50 was 6.89 and the Emax was 107%. For `O=C(O)c1n[nH]c2cc(Cl)c(-c3ccc(CO)cc3)cc12` [Example 111, 6-Chloro-5-(4-(hydroxymethyl)phenyl)-1H-indazole-3-carboxylic acid], in that order: 6.76 and 12%. `CC(O)(c1ccc(-c2cc3c(C(=O)O)n[nH]c3cc2Cl)cc1)C(F)(F)F` (stereo not drawn) [Example 108, 6-Chloro-5-(4-(1,1,1-trifluoro-2-hydroxypropan-2-yl)phenyl)-1H-indazole-3-carboxylic acid]: the pEC50 is 7.03 and the Emax turned out to be 92%.

These data come from patent US9394285B2 (Pfizer Inc., priority 2013, dated 2016).
